Data: US20080221017A1, “Pharmaceutical or cosmetic composition and use of a PKC inhibitor with an MMP inhibitor for inhibiting langerhans cell migration” (Laboratoires Expanscience, priority 2000, published 2008)

Tested on: Langerhans cells (LCs)
Test: Migration of LCs through Matrigel in a two-compartment culture chamber (DNSB-sensitized)
Type: cell-based, human
Settings: for LC migration index: 18 h at 37° C., control cells fixed at 1
Method: Suspensions of epidermal cells were obtained by enzyme treatment (0.05% trypsin, for 18 h at +4° C.) of fragments of normal human skin derived from plastic surgery.
D-sphingosine was diluted in ethanol so as to obtain a stock solution at 5×10^−3 M. The D-sphingosine was used at a concentration of 2.5 μM, the dilution carried out in RPMI containing 1% of bovine serum albumin (RPMI-BSA).
A peptide extract of lupin was used as MMP inhibitor. It is the peptide extract LU105 from Laboratoires Pharmascience.
The cells were pre-incubated at 37° C. for 60 min in the presence of LU105, before adding to the medium the hapten DNSB as sensitizing agent.
As sensitizing agent, DNSB (Sigma Aldrich) was used, the soluble form of DNCB (dinitrochlorobenzene), and was solubilized in RPMI-BSA and used at a concentration of 50 μM.
A two-compartment culture chamber system (Falcon, Becton Dickinson, France) was used. The upper compartment is separated from the lower compartment by a membrane with a porosity of 8 μm, onto which are deposited 50 μg/cm^2 of Matrigel. The membrane is then covered with proteins, forming a film equivalent to a basal membrane (laminin, collagen IV, nidogen, entactin, heparan sulfate proteoglycans). The cells taken up in the RPMI-BSA medium alone or in the presence of the various products are placed in the upper compartment. Normal human fibroblast culture supernatant is added to the lower compartment. After incubation for 18 h at 37° C., the number of living cells which have crossed the Matrigel and are in the lower compartment is counted under a microscope (the LCs are easily identifiable by their dendritic shape). Each assay is carried out in triplicate.

Structure (SMILES) | effect on the LC migration induced by DNSB (in words) (D-sphingosine 2.5 μM) | LC migration index (DNSB+D-sphingosine (2.5 μM)) | LC migration index (cells sensitized with the hapten DNSB (50 μM) alone) | increase of LC migration compared to the normal unstimulated cells (control cells) (treatment with the hapten DNSB alone) [%]
CCCCCCCCCCCCC/C=C/[C@@H](O)[C@@H](N)CO (relative stereo) [D-sphingosine, D-erythro-1,3-dihydroxy-2-amino-4-trans-octadecene] | significantly inhibits | 1.15 | – | –
O=[N+]([O-])c1ccc(S(=O)(=O)O)c([N+](=O)[O-])c1 [DNSB, reference compound] | – | – | 1.61 | 61
